Results on 44 compounds are retold here after US11555009B2, “2-(substituted benzene matrix) aromatic formate FTO inhibitor, preparation method therefor, and applications thereof” (SHANGHAI INSTITUTE OF MATERIA MEDICA, CHINESE ACADEMY OF …, priority 2017, dated 2023).

Assay [1] deals with human bone marrow rhabdomyosarcoma cell line (RH30). The assay can be described thus: MTS cytotoxicity on RH30 cells. In kind it is cell-based. The settings on record: 50 μM, 72 h; for inhibition at 50 µM: Homo sapiens, Rh30, read-out: Inhibition rate (human bone marrow rhabdomyosarcoma cell RH30). The method, then: (§1) The following was a study of the cytotoxicity study of compound of 2-(substituted phenylhetero)aromatic formic acid of formula (I) and its derivatives as FTO inhibitors on solid tumors including human small cell lung cancer cell lines (SCLC-21H), human bone marrow rhabdomyosarcoma cell line (RH30) and pancreatic cancer cell Line (KP3):
(§2) SCLC-21H, RH30 and KP3 solid tumor cell lines were cultivated separately, and seeded at 5000 cells per well in 96 well plates. The cells were cultured until the cells were adherent, and different compounds were added and the cultivation was continued for 72 hours. 10 uL of MTS solution was directly added and the mixture was incubated for 4 h, and the absorbance was measured at 490 nm. The inhibition rate was calculated by using the DMSO group as a control.

The test system of assay [2] is human small cell lung cancer cell lines (SCLC-21H). The assay can be described thus: MTS cytotoxicity on SCLC-21H cells. The settings on record: 50 μM, 72 h; for inhibition at 50 µM: Homo sapiens, SCLC-21H, read-out: Inhibition rate (human small cell lung cancer SCLC-21H). The class given is cell-based. The method, then: as §1, §2
A further assay deals with FTO (Homo sapiens (Human), UniProt Q9C0B1). The assay can be described thus: FTO enzyme inhibition (m6A dsDNA substrate, DpnII digestion, gel readout). The class given is biochemical. To be noted: for Inhibition rate: in vitro inhibition rate on FTO, compound at 50 μM; for inhibition at 50 µM: read-out: Inhibition rate. The method, then:
High purity FTO protein was obtained by nickel column affinity chromatography purification.
After incubation at room temperature for 2 hrs, the reaction system was then slowly heated to 65° C. to inactivate, and 1 μM 39 nt of antisense strand DNA was added to anneal, thereby forming double strands. […] After Gel-Red dyeing, photos were taken with gel imaging system. The obtained band was subjected to gray scale reading to obtain inhibition rate.

FTO, sequence (Q9C0B1 whole entry): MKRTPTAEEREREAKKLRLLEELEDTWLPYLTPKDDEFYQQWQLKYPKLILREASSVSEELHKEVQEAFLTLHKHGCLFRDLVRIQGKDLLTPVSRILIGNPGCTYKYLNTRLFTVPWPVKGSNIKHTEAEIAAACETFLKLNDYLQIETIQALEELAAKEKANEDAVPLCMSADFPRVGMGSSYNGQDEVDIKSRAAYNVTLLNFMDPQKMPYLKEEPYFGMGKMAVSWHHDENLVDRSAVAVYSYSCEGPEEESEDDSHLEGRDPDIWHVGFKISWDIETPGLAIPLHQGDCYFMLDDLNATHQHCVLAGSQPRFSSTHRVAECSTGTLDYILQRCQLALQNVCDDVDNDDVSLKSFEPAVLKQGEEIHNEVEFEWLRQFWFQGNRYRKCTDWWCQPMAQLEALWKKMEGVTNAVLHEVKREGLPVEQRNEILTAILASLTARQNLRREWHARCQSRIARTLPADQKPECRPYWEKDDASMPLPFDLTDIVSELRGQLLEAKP

On to `Cc1cc(-c2ccncc2)cc(C)c1Nc1ccccc1C(=O)O` [Compound 46], for which the “Inhibition rate (human bone marrow rhabdomyosarcoma cell RH30)” value in assay [1] is reported as 41%. Besides, in assay [2], the “Inhibition rate (human small cell lung cancer SCLC-21H)” value is recorded as 66%. This compound also came in with an Inhibition rate at FTO of 100%.
For the compound `Cc1noc(C)c1-c1cc(Cl)c(Nc2ccccc2C(=O)O)c(Cl)c1` [Compound 15, 2-((2,6-dichloro-4-(3,5-dimethylisoxazole)phenyl)amino)benzoic acid], the inhibition (as a rule, the change of the read-out against control, counted positive when it falls) at 50 µM was 49% in assay [1] and 43% in assay [2].
Compound `O=C(O)c1ccccc1Nc1c(F)cc(-c2cn[nH]c2)cc1F` [Compound 36] yielded an Inhibition rate on FTO of 28%.
Take `O=C(O)c1cccnc1Nc1c(Cl)cc(-c2ccoc2)cc1Cl` [Compound 59]: the “Inhibition rate (human bone marrow rhabdomyosarcoma cell RH30)” value in assay [1] was found to be 57%. Further, the “Inhibition rate (human small cell lung cancer SCLC-21H)” value in assay [2] was determined as 28%. Besides, on FTO, the Inhibition rate was found to be 100%.
Turning to `Cc1noc(C)c1-c1cc(Cl)c(Nc2ccccc2-c2nn[nH]n2)c(Cl)c1` [Compound 26], the “Inhibition rate (human bone marrow rhabdomyosarcoma cell RH30)” value in assay [1] worked out at 36%. Besides, the “Inhibition rate (human small cell lung cancer SCLC-21H)” value in assay [2] is 17%.
Take `O=C(O)c1ccccc1Nc1c(Cl)cc(-c2cc(O)cc(O)c2)cc1Cl` [Compound 1]: at FTO, 700 nM corresponded to half-maximal inhibition (IC50) and the inhibition at 50 µM amounted to 85%.
For `O=C(O)c1ccccc1Nc1c(Cl)cc(N2CCOCC2)cc1Cl` [Compound 55], at FTO, the IC50 (as a rule, the midpoint of a concentration-inhibition curve) was below 5000 nM and the Inhibition rate turned out to be 100%.
Regarding `Cc1cc(-c2c(C)noc2C)c(C)cc1Nc1ccccc1C(=O)O` [Compound 48], the “Inhibition rate (human bone marrow rhabdomyosarcoma cell RH30)” value in assay [1] was determined as 51%. In addition, in assay [2], the “Inhibition rate (human small cell lung cancer SCLC-21H)” value came out at 63%.
As to `O=C(O)c1ccccc1Nc1c(F)cc(-c2ccncc2)cc1F` [Compound 37], in assay [1], the “Inhibition rate (human bone marrow rhabdomyosarcoma cell RH30)” value is 21%. Further, the “Inhibition rate (human small cell lung cancer SCLC-21H)” value in assay [2] came to 60%. The Inhibition rate on FTO is listed as 31%.
Turning to `Cc1noc(C)c1-c1cc(Cl)c(Nc2ncccc2C(=O)NO)c(Cl)c1` [Compound 63], the “Inhibition rate (human bone marrow rhabdomyosarcoma cell RH30)” value in assay [1] stood at 68%. Moreover, the “Inhibition rate (human small cell lung cancer SCLC-21H)” value in assay [2] was determined as 70%. The compound also yielded an Inhibition rate at FTO of 35%.
Consider `COc1cc(-c2c(C)noc2C)cc(OC)c1Nc1ccccc1C(=O)O` [Compound 43], for which the “Inhibition rate (human bone marrow rhabdomyosarcoma cell RH30)” value in assay [1] worked out at 25%. Also, in assay [2], the “Inhibition rate (human small cell lung cancer SCLC-21H)” value worked out at 44%.
For `Cc1n[nH]cc1-c1cc(Cl)c(Nc2nccnc2C(=O)O)c(Cl)c1` [Compound 67], in that order: 41% and 33%.
Consider `Cc1noc(C)c1-c1cc(O)c(Nc2ccccc2C(=O)O)c(O)c1` [Compound 40], for which, on FTO, the Inhibition rate is reported as 100%.
`Cc1noc(C)c1-c1cc(Cl)c(Nc2ccccc2C(=O)O)c(Cl)c1` [Compound 30]: the “Inhibition rate (human bone marrow rhabdomyosarcoma cell RH30)” value in assay [1] worked out at 32%. For the same compound, in assay [2], the “Inhibition rate (human small cell lung cancer SCLC-21H)” value is listed as 33%.
As for `Cc1noc(C)c1-c1cc(Cl)c(Nc2ccccc2C(=O)OCc2oc(=O)oc2C)c(Cl)c1` [Compound 88], the inhibition at 50 µM on FTO amounted to 34%.
Turning to `O=C(O)c1ccccc1Nc1ccc(-c2ccncc2)cc1O` [Compound 52], the Inhibition rate at FTO was found to be 90%.
Same read-out and setting: for `O=C(O)c1ccccc1Nc1c(Cl)cc(C2CCNCC2)cc1Cl` [Compound 56] the value was 45%.
Take `Cc1noc(C)c1-c1cc(Cl)c(Nc2ccc([N+](=O)[O-])cc2C(=O)O)c(Cl)c1` [Compound 74]: the “Inhibition rate (human bone marrow rhabdomyosarcoma cell RH30)” value in assay [1] turned out to be 32%. Besides, in assay [2], the “Inhibition rate (human small cell lung cancer SCLC-21H)” value turned out to be 38%. The compound also showed an Inhibition rate on FTO of 75%.
On to `O=C(O)c1nccnc1Nc1c(Cl)cc(-c2ccncc2)cc1Cl` [Compound 66], for which the “Inhibition rate (human bone marrow rhabdomyosarcoma cell RH30)” value in assay [1] is 53%. Also, in assay [2], the “Inhibition rate (human small cell lung cancer SCLC-21H)” value was 48%.
With `C#CCOC(=O)c1ccccc1Nc1c(Cl)cc(-c2c(C)noc2C)cc1Cl` [Compound 84], at FTO, the inhibition at 50 µM was 34%.
For `Cc1noc(C)c1-c1cc(Cl)c(Nc2ccccc2C(=O)O)c(Cl)c1` [Compound 29], the “Inhibition rate (human bone marrow rhabdomyosarcoma cell RH30)” value in assay [1] came out at 47%. In assay [2], the “Inhibition rate (human small cell lung cancer SCLC-21H)” value is 46%.
On the same counts, the results for `Cc1noc(C)c1-c1cc(Cl)c(Nc2ccccc2C(=O)O)c(Cl)c1` [Compound 28] are 21% and 32%.
On the same counts, the results for `Cc1noc(C)c1-c1cc(Cl)c(Nc2ccc(F)cc2C(=O)O)c(Cl)c1` [Compound 69] are 29% and 50%.
In the case of `O=C(O)c1cc(F)ccc1Nc1c(Cl)cc(-c2cncnc2)cc1Cl` [Compound 71], at FTO, the Inhibition rate amounted to 70%.
`O=C(O)c1ccc(-c2cc(Cl)c(Nc3ccccc3C(=O)O)c(Cl)c2)s1` [Compound 10] registered a concentration for half-maximal inhibition (IC50) on FTO below 1000 nM.
For the compound `Cc1noc(C)c1-c1cc(Cl)c(Nc2ccccc2-c2noc(=O)[nH]2)c(Cl)c1` [Compound 27], in assay [1], the “Inhibition rate (human bone marrow rhabdomyosarcoma cell RH30)” value is recorded as 50%. The “Inhibition rate (human small cell lung cancer SCLC-21H)” value in assay [2] is 14%. At FTO, the IC50 was below 1000 nM.
For `CCCOCCOC(=O)c1ccccc1Nc1c(Cl)cc(-c2c(C)noc2C)cc1Cl` [Compound 85], the inhibition at 50 µM on FTO was found to be 30%.
Turning to `O=C(NO)c1nccnc1Nc1c(Cl)cc(-c2cn[nH]c2)cc1Cl` [Compound 64], in assay [1], the “Inhibition rate (human bone marrow rhabdomyosarcoma cell RH30)” value came to 30%. For the same compound, the “Inhibition rate (human small cell lung cancer SCLC-21H)” value in assay [2] worked out at 24%. In addition, the Inhibition rate at FTO was determined as 68%.
On the same counts, the results for `COc1cc(-c2cc[nH]n2)cc(OC)c1Nc1ccccc1C(=O)O` [Compound 42] are 33%, 33% and 79%.
As to `O=C(O)c1cccnc1Nc1c(Cl)cc(-c2ccccc2)cc1Cl` [Compound 60], in assay [1], the “Inhibition rate (human bone marrow rhabdomyosarcoma cell RH30)” value is given as 72%. Moreover, the “Inhibition rate (human small cell lung cancer SCLC-21H)” value in assay [2] is listed as 71%.
For the compound `Cc1noc(C)c1-c1cc(Cl)c(Nc2ccc(N)cc2C(=O)O)c(Cl)c1` [Compound 75], the “Inhibition rate (human bone marrow rhabdomyosarcoma cell RH30)” value in assay [1] stood at 51%. Besides, the “Inhibition rate (human small cell lung cancer SCLC-21H)” value in assay [2] was 60%. The Inhibition rate on FTO is given as 58%.
As for `O=C(O)c1ccccc1Nc1c(Cl)cc(-c2ccn[nH]2)cc1Cl` [Compound 2], at FTO, the IC50 was below 5000 nM and the inhibition at 50 µM came out at 80%.
In the case of `Cc1cc(-c2c(C)noc2C)cc(C)c1Nc1ccccc1C(=O)O` [Compound 44], the “Inhibition rate (human bone marrow rhabdomyosarcoma cell RH30)” value in assay [1] is recorded as 24%. Moreover, the “Inhibition rate (human small cell lung cancer SCLC-21H)” value in assay [2] is on record as 47%. The compound also yielded an Inhibition rate at FTO of 100%.
For `Cc1n[nH]cc1-c1cc(Cl)c(Nc2ncccc2C(=O)O)c(Cl)c1` [Compound 57], in that order: 40%, 47% and 100%.
On the same counts, the results for `O=C(NO)c1cccnc1Nc1c(Cl)cc(-c2ccncc2)cc1Cl` [Compound 62] are 87%, 84% and 28%.
For `COc1cc(OC)cc(-c2cc(Cl)c(Nc3ncccc3C(=O)O)c(Cl)c2)c1` [Compound 61], in assay [1], the “Inhibition rate (human bone marrow rhabdomyosarcoma cell RH30)” value came to 52%. Besides, the “Inhibition rate (human small cell lung cancer SCLC-21H)” value in assay [2] was 44%.
With `O=C(O)c1ccccc1Nc1c(Cl)cc(-c2ccncc2)cc1Cl` [Compound 5], the inhibition at 50 µM in assay [1] was determined as 29%; in assay [2], 55%. This compound registered an IC50 against FTO below 5000 nM.
Consider `O=C(O)c1cc(F)ccc1Nc1c(Cl)cc(-c2cn[nH]c2)cc1Cl` [Compound 73], for which the Inhibition rate on FTO is reported as 84%.
As to `Cc1noc(C)c1-c1cc(Cl)c(Nc2nccnc2C(=O)O)c(Cl)c1` [Compound 65], the “Inhibition rate (human bone marrow rhabdomyosarcoma cell RH30)” value in assay [1] came out at 42%. Further, in assay [2], the “Inhibition rate (human small cell lung cancer SCLC-21H)” value came out at 52%. This compound had an Inhibition rate at FTO of 88%.
Consider `O=C(O)c1cc(F)ccc1Nc1c(Cl)cc(-c2ccc(F)cc2)cc1Cl` [Compound 72], for which, in assay [1], the “Inhibition rate (human bone marrow rhabdomyosarcoma cell RH30)” value came to 37%. For the same compound, the “Inhibition rate (human small cell lung cancer SCLC-21H)” value in assay [2] is recorded as 64%.
Take `Cc1n[nH]c(C)c1-c1cc(Cl)c(Nc2ccccc2C(=O)O)c(Cl)c1` [Compound 17]: the inhibition at 50 µM in assay [1] amounted to 39%; in assay [2] it was 25%.
Take `CCN(CC)CCOC(=O)c1ccccc1Nc1c(Cl)cc(-c2c(C)noc2C)cc1Cl` [Compound 86]: the inhibition at 50 µM at FTO amounted to 31%.
As to `COc1cc(-c2cn[nH]c2)cc(OC)c1Nc1ccccc1C(=O)O` [Compound 41], the “Inhibition rate (human bone marrow rhabdomyosarcoma cell RH30)” value in assay [1] was 28%. In assay [2], the “Inhibition rate (human small cell lung cancer SCLC-21H)” value is listed as 35%.
For `O=C(O)c1nccnc1Nc1c(Cl)cc(-c2ccoc2)cc1Cl` [Compound 68], in that order: 56% and 68%.
